One series has as its system B. subtilis IS-75. Briefly: Bacterial growth / viable count assay, B. subtilis. It is filed as cell-based, Bacillus subtilis. Here is the method: (§1) The culture was diluted again 1/500 in 1 ml of fresh media with presence of increasing concentrations of tested compound or 1% DMSO as a control.
The test system of the next series is E. coli DH5α. Briefly: Zone inhibition assay (ZIA), E. coli.
The test system of another series is B. subtilis 1S-75. In words: Zone inhibition assay (ZIA), B. subtilis. Type of series: cell-based, Bacillus subtilis.
In series [1] the test system is Cy3/Cy5-labelled oligonucleotides. Briefly: Counterscreen assay excluding quenching (Cy3/Cy5 oligonucleotide FRET). The settings on record: 50 nM of each oligonucleotide. On the procedure:
Oligonucleotides were purchased from Integrated DNA Technologies:
In the assay, a 50 nM final concentration of each oligonucleotide was used.
Incubation buffer: 70 mM HEPES-KOH (pH 7.6), 52 mM ammonium acetate, 8 mM magnesium chloride, 30 mM potassium chloride and 2.6% glycerol. A 96-well black, clear bottom microplate was used and read the plate was read using EnVision multilabel plate reader (PerkinElmer) having the same optical filters and parameters as described in Example 2.
A general note: The purpose of a counterscreen is to sort out artefacts and off-target activity.

Series [2] in a line: Intraperitoneal administration in mice. It is filed as in vivo. The conditions noted are these: 10 mg/ml.
The subject of the next series is mycobacteria. In words: Drug susceptibility assay (MIC), mycobacteria. It is filed as cell-based.
The subject of a further series is E. coli strains. Briefly: Bacterial growth assay, E. coli. It is filed as cell-based, Escherichia coli. Here is the method: as §1
For series [3], the system named is USA300 methicillin-resistant Staphylococcus aureus (MRSA). Type of series: in vivo, C57Bl/6J mice. The conditions noted are these: for bacterial counts (punch biopsies) / dermonecrosis: topical ointment daily, 0.2 mg drug; for dermonecrosis: first experiment.
In another series the test system is Gram-negative bacteria. In words: Drug susceptibility assay (MIC), Gram-negative bacteria. It is filed as cell-based.
Another series concerns Pseudomonas aeruginosa. In words: Bacterial growth assay, Pseudomonas aeruginosa. It is filed as cell-based. On the procedure:
as §1

For series [4], the system named is ternary complex between Cy5-EF-Tu:GTP and Cy3-Phe-tRNAPhe. In words: EF-Tu:tRNA FRET assay (qHTS and secondary FRET assay). The settings on record: online and offline LOPAC testing. It is filed as biochemical, E. coli. An excerpt: Upon formation of functional ternary complex between Cy5-EF-Tu:GTP and Cy3-Phe-tRNAPhe, fluorescence energy transfer (FRET) occurs between Cy3 and Cy5 fluorophores located within Förster radius (~17 Å) when Cy3 is excited at 532 nm, and as a result the complex emits light at 665 nm. Presence of inhibitors of the ternary complex prevents complex from forming, thereby reducing fluorescence intensity at 665 nm.
Inhibitors of EF-Tu:tRNA translation were identified using this in vitro FRET system. Quantitative high throughput screening (qHTS) was performed on the LOPAC library containing 1,280 chemicals to identify potential leads for antibiotic development. […]
Equipment: EnVision 2104 Multilabel Plate Reader (PerkinElmer) with excitation optical filter 2100-5050 Bodipy TMR FR 531 nm and emission optical filter 2100-5770 Cy5 685 nm. […]
All solutions were prepared fresh in assay buffer consisting of 70 mM HEPES-KOH (pH7.6), 52 mM ammonium acetate, 8 mM magnesium chloride, 30 mM potassium chloride, and 2.6% glycerol. […] FRET was then detected using 1) a ViewLux high-throughput microplate imager (PerkinElmer) equipped with Ex: 525/20 and Em: 671/8 filters; or 2) an Envision Multimode plate reader (PerkinElmer) equipped with Ex: 530/25 and Em: 665 filters. Assay performance, as calculated by Z′ factor as described by Zhang et al (J Biomol Screen, 1999), was favorable for the Envision plate reader. […]
(In qHTS, concentration-response curves come from the screen itself.)

The subject of series [5] is Staphylococcus aureus strains including MRSA. In words: Drug susceptibility assay (MIC), Staphylococcus aureus. Type of series: cell-based. The settings on record: including the MRSA strain. On the procedure:
Drug susceptibility assays. Experiments to determine the minimum inhibitory concentration (MIC) of RR-THC for bacterial growth were performed in 96-well microtiter plates. A DMSO stock solution of each compound was added to the first column and serially diluted across the columns of the plate. The last column of the plate contained no drug and served as a no-drug control. Overnight cultures of the bacterium being tested (MRSA ATCC 43300, […], or the aforementioned VRSA/VISA strains) were diluted 1000-fold, and 100 μL of the diluted culture (appr. 2×10^3 cells) was used as an inoculum in each well. MICs were determined by visual inspection looking for a pellet after 18 h incubation at 37° C. and centrifugation.

The nature of series [6]: Cytotoxicity assay (CellTiter 96 AQueous One Solution). It is filed as cell-based. The settings on record: African green monkey, Vero cells, read-out: Cytotoxicity CC 50. On the procedure:
Cytotoxicity assay. Compounds were tested for cytotoxicity against mammalian Vero cells using the CellTiter 96 AQueous One Solution Assay kit (Promega). Vero cells were seeded in 96-well plates at a density of 2×10^4 cells per well, and the plates were incubated for 4 h at 37° C. to allow attachments of the Vero cells. Chemical compounds being tested were then added to the wells starting from a final concentration of 50 μg/mL and making 12 1:2 dilutions. Cells were incubated for 72 h at 37° C., after which 20 μL of freshly prepared MTS:PMS reagents was added to each well. The plates were incubated for 2 h and then read at an absorbance of 490 nm.

“Also recorded” adds a separate entry of the source.

With `CC[C@@H]1Cc2cc(O)ccc2C2=C1c1ccc(O)cc1C[C@H]2CC` [RR-THC, (R,R)-tetrahydrochrysene], in the series on B. subtilis IS-75 (10 μM added to the medium in an agar plate), the “colony formation of B. subtilis on agar plate” value is recorded as “colonies did not form”. In addition, in the series on B. subtilis IS-75 (Bacillus subtilis, IS75, 5 μM, cells grown in test tubes), the inhibition at 5 µM was roughly 97%. The “zone inhibition result in words, E. coli” value in the series on E. coli DH5α is “did not inhibit”. The “zone inhibition result in words, gram-positive bacteria (B. subtilis)” value in the series with B. subtilis 1S-75 is “clear zone indicative of inhibition of cell growth”. In [1], the “change of FRET in quenching counterscreen” value is listed as “did not significantly change FRET”. Moreover, the “toxicity upon intraperitoneal administration” value in [2] is “a level of toxicity observed”. Further, the “sensitivity in MIC assay, mycobacteria” value with mycobacteria is reported as “not sensitive”. The “inhibition of bacterial growth, E. coli strains” value in the series with E. coli strains was “No inhibition”. The “dermonecrosis, repetition of the experiment” value in series [3] (compared to controls but not compared to the mupirocin treated group) is given as “statistically significant decrease in dermonecrosis”. Also, in series [3], the “bacterial counts (punch biopsies)” value is given as “no difference apparent” and the dermonecrosis entry is “inhibiting dermonecrosis; also recorded: trend to reduced dermonecrosis”. In addition, in the series on Gram-negative bacteria, the “sensitivity in MIC assay, Gram-negative bacteria” value is “not sensitive”. Besides, the “inhibition of bacterial growth, Pseudomonas aeruginosa” value in the series on Pseudomonas aeruginosa is given as “No inhibition”. In addition, the “effect on Cy5-EF-Tu acceptor fluorescence emission in the FRET assay” value in series [4] is listed as “significantly diminished; also recorded: effectively decreased Cy5-EF-Tu acceptor fluorescence emission; also recorded: highly active in both methods”. In addition, the “sensitivity in MIC assay, three Staphylococcus aureus strains” value in series [5] was “highly sensitive”. In addition, the CC50 at 72 h in series [6] is greater than 50 µM.
Turning to `C/C(=C\C(=O)OCCCCCCCCC(=O)O)C[C@@H]1OC[C@H](C[C@@H]2O[C@H]2[C@@H](C)[C@H](C)O)[C@@H](O)[C@H]1O` [mupirocin, reference compound], in series [3], the “bacterial counts (punch biopsies)” value is on record as “trend to reduction” and the dermonecrosis entry is on record as “no decrease”.

A word on the inhibition: it is the share of the control response that was lost under treatment.

The values are drawn from patent US20260256712A1, “COMPOUNDS FOR INHIBITING GRAM-POSITIVE BACTERIA” (priority 2022, published 2026).
